In US12390446B2 (RESEARCH TRIANGLE INSTITUTE, priority 2017, dated 2025):
Converted amounts (≈) assume the structure as drawn. “And” between values parts separate entries of the source, which are not always exact repeats. Equal entries are not always repeated. “Also recorded” adds a separate entry of the source. Where two headings read alike, the source gives them in different places.

Key:
[1] = molecular target: T1, NPFF1 receptor (CHO-hNPFFR1 membranes) (Homo sapiens, UniProt Q9GZQ6); test: Radioligand binding assay, [125I]NPFF, NPFF1
T1 construct: purchased PerkinElmer RBHNF1M400UA; host or cells: CHO cell membranes
Method: (§1) Radioligand binding assay. Binding assays were performed according to PerkinElmer's protocol in a final volume of 500 μL of assay buffer (50 mM Tris-HCl, 1 mM MgCl2, 60 mM NaCl, 0.5% BSA, pH 7.4). […] After incubating at 27° C. for 120 minutes, the binding assay was terminated by vacuum filtration onto Unifilter GF/C glass-fiber filters (pre-soaked in 0.1% PEI) using a Brandel (Gaithersburg, MD, USA) 96-well harvester, followed by three washes with ice-cold wash buffer (50 mM Tris-HCl, 0.1% BSA, pH 7.4). The filter plate was dried for 1 hr at 55° C. Microscint 20 (50 μL) was added to each well and filter-bound radioactivity was counted on a Packard TopCount NXT microplate scintillation and luminescence counter.
(§2) Data were fit to a one site (fit Ki) competitive binding model, log EC50=log(10^log Ki*(1+RadioligandNM/HotKdNM)), to generate Ki values for the test compounds using GraphPad Prism (GraphPad Software, Inc., San Diego CA).

[2] = molecular target: T2, NPFF1 receptor (human NPFFR1 in CHO-RD-HGA16 cells) (Homo sapiens, UniProt Q9GZQ6); test: Calcium mobilization functional Ke assay, NPFF1; type: cell-based; conditions: for Kb: read-out: NPFF1 Ke; for preference / selectivity for NPFF1 over NPFF2: from calcium mobilization Ke values
T2 construct: expressed in transfected cells

Kinetic solubility assay = type: physicochemical
Method: (§3) Kinetic solubility and bidirectional MDCK-MDR1 permeability assays of the compounds were performed by Paraza Pharma Inc. (Montreal, Canada) according to their standard protocols.
Kinetic solubility assay. A 10 μL of test compound stock solution (10 mM DMSO) was combined with 490 μL of PBS (potassium phosphate monobasic 1 mM, sodium phosphate dibasic 3 mM and sodium chloride 155 mM buffer). The solution was agitated on a VX-2500 multi-tube vortexer (VWR) for 2 hours at room temperature. Following agitation, the sample was filtrated on a glass-fiber filter (1 μm) and the eluate was diluted 200-fold with a mixture of acetonitrile: water (1:1). On each experimental occasion, nicardipine and imipramine were assessed as reference compounds for low and high solubility, respectively. All samples were assessed in triplicate and analyzed by LC-MS/MS using electrospray ionization against standards prepared in the same matrix.

MDCK-MDR1 cells = test: Bidirectional MDCK-MDR1 permeability assay; type: in vitro ADME; conditions: for BBB permeability / rate B to A / rate apical (A) to basolateral (B): MDCK-MDR1; for Pgp substrate: from efflux ratio
Method: as §3
(§4) Bidirectional MDCK-MDR1 permeability assay. MDCK-mdr1 cells at passage 5 were seeded onto permeable polycarbonate supports in 12-well Costar@ Transwell® plates and allowed to grow and differentiate for 3 days. On day 3, culture medium (DMEM supplemented with 10% FBS) was removed from both sides of the transwell inserts and cells were rinsed with warm HBSS. After the rinse step, the chambers were filled with warm transport buffer (HBSS containing 10 mM HEPES, 0.25% BSA, pH 7.4) and the plates were incubated at 37° C. for 30 min prior to TEER (Trans Epithelial Electric Resistance) measurements.
(§5) The buffer in the donor chamber (apical side for A-to-B assay, basolateral side for B-to-A assay) was removed and replaced with the working solution (10 μM test article in transport buffer). The plates were then placed at 37° C. under light agitation. At designated time points (30, 60 and 90 min), an aliquot of transport buffer from the receiver chamber was removed and replenished with fresh transport buffer. Samples were quenched with ice-cold ACN containing internal standard and then centrifuged to pellet protein. Resulting supernatants are further diluted with 50/50 ACN/H2O(H2O only for Atenolol) and submitted for LC-MS/MS analysis. Reported apparent permeability (Papp) values were calculated from single determination. Atenolol and propranolol were tested as low and […] permeability references.
(§6) The apparent permeability (Papp, measured in cm/s) of a compound is determined according to the following formula:
(§7) [formula] • dQ/dt is the net rate of appearance in the receiver compartment • A is the area of the Transwell measured in cm^2 (1.12 cm^2) • Ci is the initial concentration of compound added to the donor chamber • 60 is the conversion factor for minutes to seconds. In Vivo Pharmacology.

[3] = molecular target: NPFF1 receptor (human NPFFR1-CHO cells) (Homo sapiens, UniProt Q9GZQ6); test: Lance cAMP functional Ke assay, NPFF1; type: cell-based; conditions: for Kb: Table 5
Method: as §3
(§8) cAMP assay. Stable human NPFFR1-CHO (ES-491-C) and NPFFR2-CHO (ES-490-C) cell lines were purchased from PerkinElmer and used with the Lance@ Ultra kit (TRF0262) to detect cAMP accumulation in low volume 96-well plates. Stimulation buffer containing 1× HBSS, 5 mM HEPES, 0.1% BSA stabilizer, and 0.5 mM IBMX was prepared and titrated to 7.4 at room temperature.
(§9) A single concentration of each test compound was prepared at 4× the desired final concentration in 2% DMSO/stimulation buffer and 5 μL was added to the assay plate.
(§10) Cells were lifted with versene and spun at 270 g for 10 minutes. The cell pellet was resuspended in stimulation buffer and 4,000 cells (10 μL) were added to each well. After incubating for 30 min at RT, Eu-cAMP tracer and uLIGHT-anti-cAMP working solutions were added per the manufacturer's instructions. After incubation at RT for 1 hour, the TR-FRET signal (ex 337 nm) was read on a CLARIOstar multimode plate reader (BMG Biotech, Cary NC).
(§11) Fluorescence values at 665 nm were plotted against the log of compound concentration using a nonlinear regression analysis to generate EC50 values (GraphPad Prism, GraphPad Software, Inc., San Diego CA). Ke values were calculated using the same equation as described in the calcium mobilization methods.

[4] = molecular target: NPFF2 receptor (human NPFFR2-CHO cells) (Homo sapiens, UniProt Q9Y5X5); test: Lance cAMP functional Ke assay, NPFF2; type: cell-based; conditions: for Kb: Table 5
Method: as §3, §8, §9, §10, §11

[5] = molecular target: T3, NPFF2 receptor (human NPFFR2 in CHO-RD-HGA16 cells) (Homo sapiens, UniProt Q9Y5X5); test: Calcium mobilization functional Ke assay, NPFF2; type: cell-based
T3 construct: expressed in transfected cells

[6] = molecular target: T4, NPFF2 receptor (CHO-hNPFFR2 membranes) (Homo sapiens, UniProt Q9Y5X5); test: Radioligand binding assay, [125I]NPFF, NPFF2
T4 construct: purchased PerkinElmer RBHNF2M400UA; host or cells: CHO cell membranes
Method: as §1, §2

Sprague-Dawley rats = test: Fentanyl-induced hyperalgesia model in rats (von Frey paw withdrawal threshold); type: in vivo, rat; conditions: day 1 after fentanyl, i.p., cumulative doses 3.2-32 mg/kg
P-gp (MDR1) = test: Bidirectional MDCK-MDR1 permeability assay; type: in vitro ADME; conditions: dog, MDCK-MDR1, pH 7.4; read-out: efflux ratio (PB→A/PA→B)
Method: as §3, §4, §5, §6, §7

[7] = Table 5, [125I]NPFF displacement
[8] = Table 1, mean ± SEM, apparent dissociation constant vs NPFF
[9] = Table 6, MDCK-MDR1, 10 μM test article

T1 sequence (Q9GZQ6 whole entry): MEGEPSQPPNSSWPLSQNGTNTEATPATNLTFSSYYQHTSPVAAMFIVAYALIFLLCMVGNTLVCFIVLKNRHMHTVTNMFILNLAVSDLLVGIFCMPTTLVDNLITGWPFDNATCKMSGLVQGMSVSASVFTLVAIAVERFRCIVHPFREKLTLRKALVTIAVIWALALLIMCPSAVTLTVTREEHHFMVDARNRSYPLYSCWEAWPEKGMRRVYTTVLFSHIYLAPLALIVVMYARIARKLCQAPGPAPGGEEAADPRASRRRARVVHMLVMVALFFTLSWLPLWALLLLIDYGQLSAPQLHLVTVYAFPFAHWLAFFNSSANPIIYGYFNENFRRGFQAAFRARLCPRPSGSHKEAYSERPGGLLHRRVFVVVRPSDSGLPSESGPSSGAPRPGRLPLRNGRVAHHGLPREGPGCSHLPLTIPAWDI
Chain of NPFF1 receptor (human NPFFR1-CHO cells) (Q9GZQ6 whole entry): as above
T2 sequence (Q9GZQ6 whole entry): as above
T4 sequence (Q9Y5X5 whole entry): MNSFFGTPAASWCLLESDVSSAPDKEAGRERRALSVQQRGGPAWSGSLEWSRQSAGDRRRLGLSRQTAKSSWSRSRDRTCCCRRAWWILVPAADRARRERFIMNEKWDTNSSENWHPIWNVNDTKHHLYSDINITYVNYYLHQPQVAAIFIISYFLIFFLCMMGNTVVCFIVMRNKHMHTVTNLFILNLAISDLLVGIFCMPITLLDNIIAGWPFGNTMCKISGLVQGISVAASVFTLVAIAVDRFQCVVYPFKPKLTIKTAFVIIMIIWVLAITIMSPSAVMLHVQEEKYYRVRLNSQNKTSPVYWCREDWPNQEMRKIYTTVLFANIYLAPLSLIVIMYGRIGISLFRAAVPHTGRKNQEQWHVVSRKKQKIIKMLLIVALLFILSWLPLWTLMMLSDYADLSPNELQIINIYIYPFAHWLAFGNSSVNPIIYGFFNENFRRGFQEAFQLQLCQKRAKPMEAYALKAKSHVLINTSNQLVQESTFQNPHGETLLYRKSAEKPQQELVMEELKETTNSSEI
Chain of NPFF2 receptor (human NPFFR2-CHO cells) (Q9Y5X5 whole entry): as above
T3 sequence (Q9Y5X5 whole entry): as above

Structure (SMILES)	Ki [1, 7] [nM]	Hill slope of NPFF + compound curve, calcium mobilization, NPFF1 cells [2]	Kb [2, 8] [nM]	Kb ([2]; calcium mobilization assay)	preference / selectivity for NPFF1 over NPFF2 [2]	solubility (Kinetic solubility assay)	BBB permeability (MDCK-MDR1 cells)	rate B to A (MDCK-MDR1 cells) [cm/s]	rate apical (A) to basolateral (B) (MDCK-MDR1 cells) [cm/s]	Pgp substrate (MDCK-MDR1 cells)	Hill slope of NPFF + compound curve, cAMP assay, NPFF1 cells [3]	Kb [3] [nM]	Hill slope of NPFF + compound curve, cAMP assay, NPFF2 cells [4]	Kb [4] [nM]	Hill slope of NPFF + compound curve, calcium mobilization, NPFF2 cells [5]	Ki [6, 7] [nM]	effect on PWT (Sprague-Dawley rats)	further results
CCCCCNC(=O)[C@@H]1C[C@H](NCc2ccc(OC)cc2)CN1Cc1ccccc1Cl [Compound 16, (2S,4S)-1-[(2-Chlorophenyl)methyl]-4-{[(4-methoxyphenyl)methyl]amino}-N-pentylpyrrolidine-2-carboxamide]	890 ± 50	1.7	720 ± 10	720 nM	> 4 fold	good and moderate	moderate	6.7e-06	7.6e-06	not Pgp substrates	1.3	340 ± 80	1.3	2150	1.1	1440	dose-dependently increased PWT	kinetic solubility (Kinetic solubility assay; Mean±% CV, free base): 146.8 ± 6.9 µM (≈ 65.2 µg/mL); solubility (Kinetic solubility assay; Table 6, kinetic solubility in PBS, free base, Mean ± % CV): 146.8 ± 6.9 µM (≈ 65.2 µg/mL); Papp A-to-B (MDCK-MDR1 cells; [9]): 7.6 10^−6 cm/sec; Papp B-to-A (MDCK-MDR1 cells; [9]): 6.7 10^−6 cm/sec; Efflux ratio (MDCK-MDR1 cells; Table 6, PB→A/PA→B): 0.9; Kb ([5]; Table 1, mean ± SEM, apparent dissociation constant vs NPFF, read-out: NPFF2 Ke): 3090 nM; NPFF2 Ke ([5]; calcium mobilization assay): 3,090 nM
COc1ccc(CCNC(=O)[C@@H]2C[C@H](NCc3ccc(OC)cc3)CN2Cc2ccccc2Cl)cc1 [Compound 26, (2S,4S)-1-[(2-Chlorophenyl)methyl]-N-[2-(4-methoxyphenyl)ethyl]-4-{[(4-methoxyphenyl)methyl]amino}pyrrolidine-2-carboxamide]	920 ± 30		670 ± 60	670 nM										2560		1460		Kb ([3]; footnote c: pre-incubation of antagonist and receptor 1 hour): 570 ± 150 nM; Kb ([5]; Table 1, footnote c: pre-incubation of antagonist and test compound 45 min or 1 hr, read-out: NPFF2 Ke): 1750 nM
COc1ccc(CN[C@H]2C[C@@H](C(=O)NCCc3ccccc3)N(Cc3ccccc3Cl)C2)cc1 [Compound 24, (2S,4S)-1-[(2-Chlorophenyl)methyl]-4-{[(4-methoxyphenyl)methyl]amino}-N-(2-phenylethyl)pyrrolidine-2-carboxamide]	710 ± 20		850 ± 140	850 nM								770 ± 120		3790		1230		NPFF1 Ke ([2]; Table 4, mean ± SEM): 850 ± 140 nM; Calcium mobilization assay Ke NPFF1 ([2]; Table 5): 850 ± 140 nM; Kb ([5]; read-out: Calcium mobilization assay Ke NPFF2): > 10000 nM; Kb ([5]; read-out: NPFF2 Ke): > 10000 nM and 9390 nM
COc1ccc(CN[C@H]2C[C@@H](C(=O)NCCc3ccc(F)c(F)c3)N(Cc3ccccc3Cl)C2)cc1 [Compound 34, (2S,4S)-1-[(2-Chlorophenyl)methyl]-N-[2-(3,4-difluorophenyl)ethyl]-4-{[(4-methoxyphenyl)methyl]amino}pyrrolidine-2-carboxamide]	560 ± 40		610 ± 130	610 nM								570 ± 170		2160		1490		
O=C(NCCc1ccc([N+](=O)[O-])cc1)[C@@H]1C[C@H](NCc2ccc(F)cc2)CN1Cc1ccccc1Cl [Compound 64, (2S,4S)-1-[(2-Chlorophenyl)methyl]-4-{[(4-fluorophenyl)methyl]amino}-N-[2-(4-nitrophenyl)ethyl]pyrrolidine-2-carboxamide]					more than 10 fold							1440		960				Kb ([2]; Table 3, mean ± SEM): 960 ± 690 nM; Kb ([5]; Table 3, mean ± SEM, read-out: NPFF2 Ke): > 10000 nM; Kb ([5]; Table 5, read-out: Calcium mobilization assay Ke NPFF2): > 10000 nM
COc1ccc(CN[C@H]2C[C@@H](C(=O)NCCc3ccc([N+](=O)[O-])cc3)N(Cc3ccccc3Cl)C2)cc1 [Compound 33]		1.4		245 nM and 250 nM	~3 fold	moderate	moderate	3.6e-06	2.7e-06	not Pgp substrates; also recorded: not a Pgp substrate	1.4		1		1.4		dose-dependently increased PWT	Ki [1]: 610 ± 30 nM; type of antagonism in curve-shift assays ([2]; standard incubation, competitive profile with longer incubations): insurmountable antagonism; efflux ratio at 90 min, 10 μM (P-gp (MDR1)): 1.3; Ki [6]: 1670 nM
